{"source": "patent US8722901B2", "about": "“Carboxy oxazole or thiazole compounds as DGAT-1 inhibitors useful for the treatment of obesity” (Piramal Enterprises Limited, priority 2009, dated 2014)", "key": {"hDGAT-1": {"target": "T1, hDGAT-1 (Homo sapiens, UniProt O75907)", "T1 construct": "host or cells: Sf9 insect cells (baculovirus); microsomal fraction", "T1 sequence (O75907 1-488)": "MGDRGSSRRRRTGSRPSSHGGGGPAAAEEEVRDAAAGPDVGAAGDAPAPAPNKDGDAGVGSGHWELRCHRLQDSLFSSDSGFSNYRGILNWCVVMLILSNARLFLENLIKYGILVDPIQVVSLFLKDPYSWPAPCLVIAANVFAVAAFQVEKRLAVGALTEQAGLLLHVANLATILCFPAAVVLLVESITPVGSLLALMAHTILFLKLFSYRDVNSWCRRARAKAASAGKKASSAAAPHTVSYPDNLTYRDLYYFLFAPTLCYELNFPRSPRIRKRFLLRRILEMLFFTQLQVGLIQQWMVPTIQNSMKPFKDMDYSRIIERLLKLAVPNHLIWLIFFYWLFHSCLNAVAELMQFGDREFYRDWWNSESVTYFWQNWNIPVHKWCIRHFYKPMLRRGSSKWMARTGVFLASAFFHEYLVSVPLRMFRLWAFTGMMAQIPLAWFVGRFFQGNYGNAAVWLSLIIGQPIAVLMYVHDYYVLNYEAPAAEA", "assay": "In-vitro DGAT-1 assay (14C oleoyl CoA, microsomes from Sf9 cells)", "type": "biochemical", "settings": "1 μM compound; hDGAT-1 containing microsomes from Sf9 cells", "protocol": "In-Vitro Protocol for DGAT-1 Assay\nSf9 Culture and Treatment\nSf9 cells were grown in T25 flasks containing Graces's Insect media (Invitrogen, US) with 10% FBS (Hyclone, US) with antibiotic (100 units/mL penicillin, 100 μg/mL streptomycin sulphate, 0.25 μg/mL amphotericin B as Fungizone) grown in a 27° C. incubator.\nhDGAT-10RF expression clone (RZPDo839C09146 in pDEST vector) was obtained from RZPD, Germany. hDGAT-1 bacmid DNA was obtained by transformation of the hDGAT expression clone into DH10Bac E. coli competent cells. Approximately 1 μg of hDGAT-1 bacmid DNA was infected into Sf9 cells with Cellfectin (Invitrogen, US) reagent. Following infection, Sf9 cells were incubated at 27° C. for 30 minutes. Five hours after infection, the media was replaced with growth media containing antibiotic (100 units/mL penicillin, 100 μg/mL streptomycin sulphate, 0.25 μg/mL amphotericin B as Fungizone) and incubated at 27° C. for 72 hours. The supernatant containing the virus was centrifuged at 1500 g for 5 minutes, passed through 0.22 μm filter, and subsequently stored at 4° C. The virus was further amplified three more times by re-infection of Sf9 cells and the viral titer was determined by plaque assay.\nPreparation of DGAT-1 Microsomes from Sf9 Cells\nSf9 cells were seeded in spinner flasks on day 0 at a cell density of 1×10^6 and infected on day 1 with hDGAT-1 baculovirus at a multiplicity of infection (MOI) of 5 and a cell density of 2×10^6. On day 3 (or 66-72 hours), cells were harvested and centrifuged at 2500 g for 10 minutes. Pellet was resuspended in lysis buffer (100 mM sucrose, 50 mM KCl, 40 mM KH2PO4, 30 mM EDTA, pH 7.2) and passed through 21-gauge needle approximately 10 times. […] The supernatant was subjected to centrifugation at 35,000 rpm in a Beckman Ti-45 rotor at 4° C. for 1 hour. The resultant pellet containing the microsomes were resuspended overnight in 1 mL of lysis buffer and total protein concentration was estimated using Bradford Reagent (Sigma, US). Microsomes were aliquoted and stored at −80° C.\nMeasurement of DGAT-1 Activity\nFrozen aliquots of hDGAT-1 containing microsomes were thawed (5-10 mg/mL total protein) on ice and diluted to a working stock of 1 mg/mL with DGAT Assay Buffer (DAB).\nThe assay was performed in duplicates in a reaction volume of 100 μL. […] Procedure:\nThe reaction was started by the addition of […] of 1 mg/mL of microsomes (iv) to the mixture and incubated at 37° C. for 10 minutes. […] The mixture was vortexed and the triglycerides formed were extracted into the organic heptane phase."}, "Swiss mice": {"system": "Swiss mice", "assay": "Fat tolerance test (ftt) in mice", "type": "in vivo", "settings": "3 mg/kg p.o., olive oil load 10 ml/kg p.o., reduction in AUC0-4h, vehicle group as 100%", "protocol": "Study Protocol for Screening of Compounds for Fat Tolerance Test (ftt) in Mice\nSwiss mice of age 4-5 weeks and body weight between 25-30 g were selected for study. After overnight fasting, animals were divided into three groups based on plasma triglyceride level with same mean and variation Animals were administered with either vehicle (1% Tween 80 in 0.5% carboxy methylcellulose) or with compounds of the present invention (3 mg/kg, p.o.). Compounds of the present invention were prepared as suspension in 0.5% carboxy methylcellulose (CMC) with 1% Tween 80. 30 minutes after the treatment, olive oil load (10 ml/kg, p.o.) was given. Blood samples were collected at 1, 2, 3 and 4 h after the fat (olive oil) load. Plasma was separated and triglyceride level was measured using commercially available kits (Diasys, Germany). Percentage reduction in area under curve (AUC0-4h) of the test compound was calculated by taking AUC0-4h of the vehicle group as 100%."}}}
{"molecule": "2-(5-(4-(3-(3,4-dimethylphenyl)ureido)phenyl)oxazole-2-carboxamido)-3-methylbutanoic acid [Example 14]", "values": [{"measurement": "% inhibition of hDGAT-1 at 1 μM", "setting": "hDGAT-1", "result": "++ (>50% Inhibition ≦100)"}, {"measurement": "% Reduction (Plasma triglyceride)", "setting": "Swiss mice", "result": "++ (>50% Reduction ≦100)"}]}
{"molecule": "CC(C)C(NC(=O)c1ncc(-c2ccc(NC(=O)Nc3ccccc3Cl)cc2)o1)C(=O)O", "note": "(stereo not shown) [Example 4, 2-(5-(4-(3-(2-Chlorophenyl)ureido)phenyl)oxazole-2-carboxamido)-3-methylbutanoic acid]", "values": [{"measurement": "inhibition at 1 µM", "setting": "hDGAT-1", "result": "50 to 100", "unit": "%"}, {"measurement": "% Reduction (Plasma triglyceride)", "setting": "Swiss mice", "result": "+ (>0% Reduction ≦50)"}]}
{"molecule": "CC(C)C(NC(=O)c1ncc(-c2ccc(NC(=O)Nc3cccc(C(F)(F)F)c3)cc2)s1)C(=O)O", "note": "(stereo not shown) [Example 10, 3-methyl-2-(5-(4-(3-(3-(trifluoromethyl)phenyl)ureido)phenyl)thiazole-2-carboxamido)butanoic acid]", "values": [{"measurement": "% Reduction (Plasma triglyceride)", "setting": "Swiss mice", "result": "++ (>50% Reduction ≦100)"}]}
{"molecule": "CC(C)C(NC(=O)c1ncc(-c2ccc(NC(=O)Nc3ccccc3Cl)cc2)s1)C(=O)O", "note": "(stereo not shown) [Example 12, 2-(5-(4-(3-(2-Chlorophenyl)ureido)phenyl)thiazole-2-carboxamido)-3-methylbutanoic acid]", "values": [{"measurement": "% Reduction (Plasma triglyceride)", "setting": "Swiss mice", "result": "++ (>50% Reduction ≦100)"}]}
{"molecule": "CC(C)C(NC(=O)c1ncc(-c2ccc(NC(=O)Nc3ccccc3Oc3ccccc3)cc2)s1)C(=O)O", "note": "(stereo not shown) [Example 16, 3-methyl-2-(5-(4-(3-(2-phenoxyphenyl)ureido)phenyl)thiazole-2-carboxamido)butanoic acid]", "values": [{"measurement": "% Reduction (Plasma triglyceride)", "setting": "Swiss mice", "result": "++ (>50% Reduction ≦100)"}]}
{"molecule": "CC(C)C(NC(=O)c1ncc(-c2ccc(NC(=O)Nc3ccc(Cl)cc3Oc3ccccc3)cc2)s1)C(=O)O", "note": "(stereo not shown) [Example 18, 2-(5-(4-(3-(4-chloro-2-phenoxyphenyl)ureido)phenyl)thiazole-2-carboxamido)-3-methylbutanoic acid]", "values": [{"measurement": "% Reduction (Plasma triglyceride)", "setting": "Swiss mice", "result": "++ (>50% Reduction ≦100)"}]}
{"molecule": "CC(C)C(NC(=O)c1ncc(-c2ccc(Nc3nc4ccc(F)cc4s3)cc2)s1)C(=O)O", "note": "(stereo not shown) [Example 20, 2-(5-(4-(6-fluorobenzo[d]thiazol-2-ylamino)phenyl)thiazole-2-carboxamido)-3-methylbutanoic acid]", "values": [{"measurement": "% Reduction (Plasma triglyceride)", "setting": "Swiss mice", "result": "++ (>50% Reduction ≦100)"}]}
{"molecule": "CC(C)C(NC(=O)c1ncc(-c2ccc(NC(=O)c3ccc(C(C)(C)C)cc3)cc2)s1)C(=O)O", "note": "(stereo not shown) [Example 22, 2-(5-(4-(4-tert-butylbenzamido)phenyl)thiazole-2-carboxamido)-3-methylbutanoic acid]", "values": [{"measurement": "% Reduction (Plasma triglyceride)", "setting": "Swiss mice", "result": "++ (>50% Reduction ≦100)"}]}
